From US5358945A, “Pyrimidine compound and pharmaceutically acceptable salts thereof” (Mitsui Petrochemical Industries, Ltd., priority 1990, dated 1994)
Structures can show the parent of a compound that is named as a salt.

Columns and labels:
[1] = test system: Mouse neuro 2a cells; test: Neurite outgrowth of mouse neuroblastoma neuro 2a cells (Table 7); format: cell-based; conditions: 0.3 mM; mean ± S.D.; hydrochloride
In short: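 Neuro-2a cells seeded at 1,000 cells/well in DMEM with 10% FCS, cultured one day at 37 °C, 5% CO2, then 24 h with compound (up to 6 concentrations, triplicate). Fixed with glutaraldehyde, methylene blue stained; percentage of cells bearing neurites ≥2× cell long diameter counted microscopically (>200 cells).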

[2] = test system: Mouse neuroblastoma cells NS-20Y; test: Neurite appearance in mouse neuroblastoma NS-20Y cells (Table 8); format: cell-based; conditions: hydrochloride;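 note: cells grown in polyornithine-coated dishes, with timing counted from the start of culture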
[3] = test system: crushed sciatic nerves; test: Recovery of the interdigital distance in rats with crushed sciatic nerves (Table 9); format: in vivo, rat (male Wistar)
Experimental: Rats whose sciatic nerves were crushed were prepared as a model for peripheral nervous disorders and the effects of the compounds of this invention on it were tested. It was made clear that the compounds of the present invention have an effect of promoting recovery of the interdigit distance and the weight of the soleus muscle to normal values.
Curative effect on rats with crushed sciatic nerves: The curing effect of the compound of the invention was tested on rats having crushed sciatic nerves as a model of peripheral nervous disorder using (1) a change in the action of the hind paw with the crushed sciatic nerves and (2) a change in the weight of the muscle as an index of the course of degeneration and regeneration of peripheral nerves.
In the experiment, male Wistar rats (6 weeks old), 10-15 per group, were used. The sciatic nerves were crushed by a method similar to the method of Yamatsu et al. (see Kiyomi Yamatsu, Takenori Kaneko, Akifumi Kitahara and Isao Ohkawa, Journal of Japanese Pharmacological Society, 72, 259-268 (1976) and the method of Hasegawa et al. (see Kazuo Hasegawa, Naoji Mikuni and Yutaka Sakai, Journal of Japanese Pharmacological Society, 7 4 721-734 (1978). Specifically, under anesthesia with pentobarbital (40 mg/kg, i.p.), the left side sciatic nerve was exposed at the femur and a given site was crushed with hemostat (2ram in width) for 30 seconds. After crushing, the operated site was immediately sitched. Vincristine, known to delay the regeneration of peripheral nerves, was administered intraperitoneally at 100 μg/kg per week.
Test compounds selected from the compounds of the invention were administered intraperitoneally or orally once a day from the day of operation to the 30th day. A group to which 0.9% saline was administered was used as control.
According to the method of Hasegawa [Hasegawa, K., Experientia, 34, 750-751 ( 1978)], the distance between the first and fifth digits of the hind paw was measured and the ratio of a crushed-side distance to a normal-side distance was calculated.
*Compound 274 is orally administered to a group of rats with the crushed

[4] = test system: mouse; test: Acute toxicity in mouse (Table 10); format: in vivo; conditions: in vivo, ip
Experimental: The acute toxicity of the compounds of the invention was examined by the following method.
Male ddy-strain 5-week old mice, 4-6 per group, were used as experimental animals. Each of the compounds was dissolved or suspended in saline and administered perorally (p.o.) or intraperitoneally (i.p.), and the toxicity of the compound was assessed 24 hours after the administration.

O=C1CCCN1c1ccnc(N2CCCCC2)n1 [Compound 274, 4-(2-oxopyrrolidino)-2-(4-piperidino) pyrimidine hydrochloride]
Ratio of the number of cells having neurites with a length of at least two times as large as the diameter of cells to the total number of cells [1]: 25.8 ± 3.5%
The number of cells in which neurites appeared/Total number of cells ([2]; 24 hour, 0.1 mM): 4/50
The number of cells in which neurites appeared/Total number of cells ([2]; 24 hour, 0.2 mM): 6/50
The number of cells in which neurites appeared/Total number of cells ([2]; 48 hour, 0.2 mM): 4/50
The number of cells in which neurites appeared/Total number of cells ([2]; 48 hour, 0.5 mM): 6/50
Rate of recovery of the interdigital distance ([3]; 7.5 mg/kg orally, 7 days after crush): 42.6 ± 6.8%
Rate of recovery of the interdigital distance ([3]; 7.5 mg/kg orally, 14 days after crush): 37.6%
Rate of recovery of the interdigital distance ([3]; 7.5 mg/kg orally, 16 days after crush): 38.4%
Rate of recovery of the interdigital distance ([3]; 7.5 mg/kg orally, 18 days after crush): 40.9 ± 6.2%
Rate of recovery of the interdigital distance ([3]; 7.5 mg/kg orally, 20 days after crush): 45.6 ± 14.0%
Rate of recovery of the interdigital distance ([3]; 7.5 mg/kg orally, 22 days after crush): 46.8 ± 13.2%
Rate of recovery of the interdigital distance ([3]; 7.5 mg/kg orally, 24 days after crush): 48.2%
Rate of recovery of the interdigital distance ([3]; 7.5 mg/kg orally, 26 days after crush): 54.8%
Rate of recovery of the interdigital distance ([3]; 7.5 mg/kg orally, 28 days after crush): 66.9 ± 19.6%
Rate of recovery of the interdigital distance ([3]; 7.5 mg/kg orally, 30 days after crush): 64.0 ± 21.2%
Rate of recovery of the interdigital distance ([3]; 15 mg/kg orally, 7 days after crush): 39.8 ± 5.2%
Rate of recovery of the interdigital distance ([3]; 15 mg/kg orally, 14 days after crush): 38.2%
Rate of recovery of the interdigital distance ([3]; 15 mg/kg orally, 16 days after crush): 39.4%
Rate of recovery of the interdigital distance ([3]; 15 mg/kg orally, 18 days after crush): 40.5 ± 4.2%
Rate of recovery of the interdigital distance ([3]; 15 mg/kg orally, 20 days after crush): 46.7 ± 7.3%
Rate of recovery of the interdigital distance ([3]; 15 mg/kg orally, 22 days after crush): 50.0 ± 10.0%
Rate of recovery of the interdigital distance ([3]; 15 mg/kg orally, 24 days after crush): 56.8%
Rate of recovery of the interdigital distance ([3]; 15 mg/kg orally, 26 days after crush): 62.2%
Rate of recovery of the interdigital distance ([3]; 15 mg/kg orally, 28 days after crush): 65.5 ± 19.8%
Rate of recovery of the interdigital distance ([3]; 15 mg/kg orally, 30 days after crush): 70.1 ± 21.4%
Rate of recovery of the interdigital distance ([3]; 30 mg/kg orally, 7 days after crush): 38.8 ± 4.4%
Rate of recovery of the interdigital distance ([3]; 30 mg/kg orally, 14 days after crush): 39.2%
Rate of recovery of the interdigital distance ([3]; 30 mg/kg orally, 16 days after crush): 38.3%
Rate of recovery of the interdigital distance ([3]; 30 mg/kg orally, 18 days after crush): 40.8 ± 4.5%
Rate of recovery of the interdigital distance ([3]; 30 mg/kg orally, 20 days after crush): 43.8 ± 6.7%
Rate of recovery of the interdigital distance ([3]; 30 mg/kg orally, 22 days after crush): 47.8 ± 11.5%
Rate of recovery of the interdigital distance ([3]; 30 mg/kg orally, 24 days after crush): 57.0%
Rate of recovery of the interdigital distance ([3]; 30 mg/kg orally, 26 days after crush): 60.9%
Rate of recovery of the interdigital distance ([3]; 30 mg/kg orally, 30 days after crush): 73.6 ± 20.0%
Estimated LD50 [4]: 250 to 500 mg/kg
